From patent US11834414B2, “1-methyl-4-[(4-phenylphenyl)sulfonylmethyl]cyclohexyanol and 1-methyl-4-[[4-(2-pyridyl)phenyl]sulfonylmethyl]cyclohexanol compounds and their therapeutic use” (Modern Biosciences Limited, priority 2018, dated 2023) come the findings set out here.

One data set concerns the target CYP1A2 (Homo sapiens (Human), UniProt P05177). The data set is described as follows: Human Cytochrome P450 Inhibition Assay (Bactosomes).
For the next data set, the target named is CYP2C19 (Homo sapiens (Human), UniProt P33261). The description is as above. It counts as in vitro ADME. The following applies: recombinant Bactosomes, 10 minutes, 37° C.
Sequence of CYP2C19 (P33261 whole entry): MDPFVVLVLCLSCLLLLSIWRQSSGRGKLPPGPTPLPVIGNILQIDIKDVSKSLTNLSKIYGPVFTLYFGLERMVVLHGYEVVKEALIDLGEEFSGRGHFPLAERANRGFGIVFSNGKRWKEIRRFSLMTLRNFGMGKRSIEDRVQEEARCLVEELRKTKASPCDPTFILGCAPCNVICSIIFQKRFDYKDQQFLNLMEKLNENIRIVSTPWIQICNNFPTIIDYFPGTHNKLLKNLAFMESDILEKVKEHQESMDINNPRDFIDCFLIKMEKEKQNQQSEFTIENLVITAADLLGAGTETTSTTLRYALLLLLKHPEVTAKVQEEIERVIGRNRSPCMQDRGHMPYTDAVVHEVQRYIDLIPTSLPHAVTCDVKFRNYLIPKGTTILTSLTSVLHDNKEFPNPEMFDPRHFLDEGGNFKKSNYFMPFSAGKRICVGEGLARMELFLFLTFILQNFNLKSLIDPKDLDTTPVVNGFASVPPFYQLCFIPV
A further data set concerns the target CYP3A4 (Homo sapiens (Human), UniProt P08684). Described as above. It counts as in vitro ADME. As to conditions: recombinant Bactosomes, 10 minutes, 37° C.
The nature of a further data set: Rat hepatocyte stability. As to conditions: rat, pooled rat hepatocytes, 60 minute incubation; for hepatocyte CLint at 1 μM: read-out: Rat Clint (μL/min/million cells); for half-life at 1 μM: read-out: Rat t1/2. It counts as in vitro ADME. Put shortly: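 Compounds (1 μM final, 0.1% DMSO, 0.9% acetonitrile) were incubated in duplicate with pooled rat or human hepatocytes at 37° C, sampled at 0–60 min and quenched with methanol. Remaining parent was measured by LC-MS/MS. Elimination rate constant came from the ln(concentration)–time slope, giving t1/2 and CLint scaled to hepatocyte concentration.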

Data set [1] in a line: Aqueous solubility in FaSSIF. It counts as physicochemical. As to conditions: pH 6.5, three replicates; for solubility at 16 h: kinetic from dmso stock. The procedure: Aqueous solubility was measured by equilibration of compounds with fasted state simulated intestinal fluid (FaSSIF) and quantified spectrophotometrically.
Preparation of blank FaSSIF: 0.21 g of sodium hydroxide (NaOH) pellets, 1.97 g of dihydrogen sodium phosphate (NaH2PO4.2H2O) and 3.09 g of sodium chloride (NaCl) were dissolved in 400 mL of deionised water. The pH was adjusted to 6.5 using 1 M hydrochloric acid and further deionised water added to a final volume of 500 mL.
Preparation of FaSSIF: 0.056 g of SIF Powder (containing sodium taurocholate and lecithin) (Phares AG) was dissolved in 25 mL of blank FaSSIF and stirred until the powder was completely dissolved. The solution was allowed to stand for 2 hours during which it became opalescent; it was used within 24 hours. The final solution composition was characterised as follows: • Sodium taurocholate: 3 mM • Lecithin: 0.75 mM • Osmolarity: 270±10 mOsmol • pH: 6.5
The optical density was measured at the end of the incubation period for test compounds and a reference used to determine solubility. In brief, two samples were prepared for each determination: a reference sample consisting of a stock solution of test compound in DMSO diluted in system solution (a phosphate free, low absorption buffer) and propanol; and a test sample (prepared in triplicate) consisting of 0.5 mL FaSSIF spiked with test compound at 0.2 mM. Each sample was incubated at room temperature for 16 hours with constant shaking at 250 rpm. At the end of the incubation period, 0.3 mL of each sample was filtered through a pION filter plate (PION, Woburn MA), diluted 1:1 with propanol and scanned using UV spectrophotometry at λmax ([…]) using a Spectra Max Plus—Version 2.1000 (Molecular Devices, Sunnyvale, CA), with pSOL Explorer solubility determination software (pION, Woburn, MA).
FaSSIF solubility was calculated using the following formula:
[formula] • wherein: • “OD” is the optical density; • “Cr” is the concentration of the reference (33.4 μM); and • “molecular weight” is for the test compound (e.g., 381.44 for ABD735).

Data set [2] deals with cytochrome P450 (CYP450) enzymes.
A further data set has as its target CYP2C9 (Homo sapiens (Human), UniProt P11712). The data set is described as follows: Human Cytochrome P450 Inhibition Assay (Bactosomes). It counts as in vitro ADME. The following applies: recombinant Bactosomes, 10 minutes, 37° C.

pIC50: −log10 of the molar value. Values after ≈ are worked out from the molar mass of the structure shown. A value given as a limit tells only on which side of the number the result lay.

Sequence of CYP2C9 (P11712 whole entry): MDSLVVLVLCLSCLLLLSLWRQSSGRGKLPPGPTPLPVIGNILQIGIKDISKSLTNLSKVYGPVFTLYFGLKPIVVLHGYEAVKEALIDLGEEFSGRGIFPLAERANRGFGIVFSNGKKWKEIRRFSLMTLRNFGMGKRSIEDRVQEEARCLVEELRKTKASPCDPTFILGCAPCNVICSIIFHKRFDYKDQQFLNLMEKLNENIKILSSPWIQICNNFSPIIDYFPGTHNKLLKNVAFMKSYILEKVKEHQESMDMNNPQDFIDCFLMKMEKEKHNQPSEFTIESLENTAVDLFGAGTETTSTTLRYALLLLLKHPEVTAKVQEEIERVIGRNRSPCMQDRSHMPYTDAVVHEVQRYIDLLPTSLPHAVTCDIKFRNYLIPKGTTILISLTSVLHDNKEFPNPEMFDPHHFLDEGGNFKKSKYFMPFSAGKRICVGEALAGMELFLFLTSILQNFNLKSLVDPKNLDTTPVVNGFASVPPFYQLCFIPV
Sequence of CYP3A4 (P08684 whole entry): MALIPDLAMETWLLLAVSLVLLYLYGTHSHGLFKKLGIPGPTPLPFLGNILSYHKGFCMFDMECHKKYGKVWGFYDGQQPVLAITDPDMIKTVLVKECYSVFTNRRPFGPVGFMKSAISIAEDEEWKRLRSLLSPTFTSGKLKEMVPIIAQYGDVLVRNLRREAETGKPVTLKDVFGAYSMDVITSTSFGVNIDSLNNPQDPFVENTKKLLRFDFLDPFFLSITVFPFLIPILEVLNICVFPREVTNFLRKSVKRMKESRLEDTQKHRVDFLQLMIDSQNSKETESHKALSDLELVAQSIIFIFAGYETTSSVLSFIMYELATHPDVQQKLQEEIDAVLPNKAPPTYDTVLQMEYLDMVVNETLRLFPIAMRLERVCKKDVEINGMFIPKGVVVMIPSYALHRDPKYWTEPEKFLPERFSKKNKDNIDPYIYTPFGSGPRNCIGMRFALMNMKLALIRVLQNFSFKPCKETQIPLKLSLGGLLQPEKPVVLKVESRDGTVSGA
Sequence of CYP1A2 (P05177 whole entry): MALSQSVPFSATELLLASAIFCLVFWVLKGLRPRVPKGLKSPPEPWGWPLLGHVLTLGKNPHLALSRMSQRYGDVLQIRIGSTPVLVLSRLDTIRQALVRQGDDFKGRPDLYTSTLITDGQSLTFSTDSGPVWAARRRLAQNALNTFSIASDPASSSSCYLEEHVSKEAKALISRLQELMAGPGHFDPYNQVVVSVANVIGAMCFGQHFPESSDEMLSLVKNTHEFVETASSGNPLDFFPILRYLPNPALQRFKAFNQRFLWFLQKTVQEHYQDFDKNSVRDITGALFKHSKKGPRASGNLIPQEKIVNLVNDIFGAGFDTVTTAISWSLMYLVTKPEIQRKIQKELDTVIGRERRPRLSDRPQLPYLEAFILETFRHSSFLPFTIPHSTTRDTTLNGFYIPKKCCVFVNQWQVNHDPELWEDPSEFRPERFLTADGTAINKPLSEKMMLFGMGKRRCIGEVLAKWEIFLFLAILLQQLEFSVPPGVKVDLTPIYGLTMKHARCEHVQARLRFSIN

Take `C[C@]1(O)CC[C@@H](CS(=O)(=O)c2ccc(-c3ccc(C#N)cc3F)cc2)CC1` [CHMSA-01-A, 2-fluoro-4′-(((cis-4-hydroxy-4-methylcyclohexyl)methyl)sulfonyl)-[1,1′-biphenyl]-4-carbonitrile]: the negative logarithm of the IC50 (pIC50) on CYP1A2 was under 4.30; on CYP2C19, under 4.30; on CYP3A4, under 4.30; on CYP2C9, 4.40. In addition, the hepatocyte CLint at 1 μM in “Rat hepatocyte stability” is 12.4 µL/min/1e6 cells. Further, the half-life at 1 μM in “Rat hepatocyte stability” came out at 106 min. In addition, the concentration in solution in data set [1] (solubility at 16 h) was 10 µg/mL (≈ 25.8 µM). Besides, the “drug-drug interaction liability, CYP450 inhibition profile (in words)” value in data set [2] was “particularly good profile”.
Regarding `C[C@]1(O)CC[C@@H](CS(=O)(=O)c2ccc(-c3ccc(C#N)cc3F)cc2C(F)(F)F)CC1` [CHMSA-02-A, 2-fluoro-4′-(((cis-4-hydroxy-4-methylcyclohexyl)methyl)sulfonyl)-3′-(trifluoromethyl)-[1,1′-biphenyl]-4-carbonitrile], the pIC50 against CYP1A2, on CYP2C19, at CYP3A4 and on CYP2C9 was under 4.30 throughout. For the same compound, the hepatocyte CLint at 1 μM in the data set “Rat hepatocyte stability” turned out to be 102 µL/min/1e6 cells. The half-life at 1 μM in “Rat hepatocyte stability” is 13 min. Also, the solubility at 16 h in data set [1] is 20 µg/mL (≈ 43.9 µM). For the same compound, the “drug-drug interaction liability, CYP450 inhibition profile (in words)” value in data set [2] is “particularly good profile”.
As to `C[C@]1(O)CC[C@@H](CS(=O)(=O)c2ccc(-c3ncc(F)cc3F)c(F)c2)CC1` [CHMSA-03-A, cis-4-(((4-(3,5-difluoropyridin-2-yl)-3-fluorophenyl)sulfonyl)methyl)-1-methylcyclohexan-1-ol], the negative-log IC50 (pIC50) against CYP1A2 was under 4.30; at CYP2C19, under 4.30; at CYP3A4, under 4.30; at CYP2C9, 4.83. Also, in the data set “Rat hepatocyte stability”, the hepatocyte CLint at 1 μM worked out at 14.4 µL/min/1e6 cells. The half-life at 1 μM in “Rat hepatocyte stability” was 91.2 min. In data set [1], this compound registered a solubility at 16 h of 70 µg/mL (≈ 175 µM). In data set [2], the “drug-drug interaction liability, CYP450 inhibition profile (in words)” value was “particularly good profile”.
On to `C[C@]1(O)CC[C@H](NS(=O)(=O)c2ccc(-c3ccc(Cl)cc3C#N)cc2)CC1` [HMC-C-01-A, reference compound], for which the negative logarithm of the IC50 (pIC50) was 4.60 at CYP1A2, under 4.60 at CYP2C19, under 4.60 at CYP3A4 and 4.68 at CYP2C9. Further, the hepatocyte CLint at 1 μM in “Rat hepatocyte stability” came out at 188 µL/min/1e6 cells. The half-life at 1 μM in the data set “Rat hepatocyte stability” turned out to be 7 min. In addition, the “Solubility” value in data set [1] (16 hours) came to 60 µg/mL (≈ 148 µM).
